According to patent US20170157135A1 (Novogen Limited, priority 2013, published 2017):

Legend:
Format in all cases: cell-based
[1] = system: SK-N-SH neuroblastoma cells; experiment: Anti-proliferative assay (cell-titre luminescent), SK-N-SH; conditions: Homo sapiens, 72 hours, luminescence
Protocol: (§1) The ability of compounds 2002, 2009 and 2013-2064 to inhibit the proliferation of cancer cells representative of neuroblastoma, melanoma, prostate cancer, colorectal cancer, non-small cell lung carcinoma, and triple negative breast cancer was assessed. These studies were conducted by contract research (GVK-BIO). Briefly, a pre-determined number of cells as calculated from cell growth assays for each of the cell lines employed were seeded into their respective culture medium (using ATCC culture parameters—http://www.atcc.org) and cultured for 24 h at 37° C. and 5% CO2 in 96-well culture plates. Once attached, each cell line was then exposed to various concentrations of each respective analogue (30, 10, 3, 1, 0.3 and 0.1 μM), cultured for a further 72 hours and exposed to cell-titre luminescent reagent (100 μL/well) for a further 30 minutes). Luminescence was captured using an EnVision multilabel reader and the data for each analogue concentration compared against no treatment control. Cell viability was normalized to control (vehicle alone) and dose-response curves, and half maximal effective concentration (EC50) values were determined using Graph Pad Prism 6 (nonlinear regression sigmoidal dose-response variable slope).

[2] = system: CaCo2 colorectal cancer cells; experiment: Anti-proliferative assay (cell-titre luminescent), CaCo2; conditions: Homo sapiens, Caco-2; CaCo2, 72 hours, luminescence
Protocol: as §1

[3] = system: MDA-MB-231 breast cancer cells; experiment: Anti-proliferative assay (cell-titre luminescent), MDA-MB-231; conditions: Homo sapiens; MDA-MB-231, 72 hours, luminescence
Protocol: as §1

[4] = system: DU145 prostate cancer cells; experiment: Anti-proliferative assay (cell-titre luminescent), DU145; conditions: Homo sapiens, DU-145; DU145, 72 hours, luminescence
Protocol: as §1

A549 lung (NSLC) cells = experiment: Anti-proliferative assay (cell-titre luminescent), A549; conditions: Homo sapiens; A549, 72 hours, luminescence
Protocol: as §1

SK-Mel-28 melanoma cells = experiment: Anti-proliferative assay (cell-titre luminescent), SK-Mel-28; conditions: Homo sapiens; SK-Mel-28, 72 hours, luminescence
Protocol: as §1

[5] = system: PC3 prostate cancer cells; experiment: Anti-proliferative assay (cell-titre luminescent), PC3; conditions: PC3, 72 hours, luminescence
Protocol: as §1

Structure (SMILES)	IC50 [1]	IC50 [2]	IC50 [3]	IC50 [4]	IC50 (A549 lung (NSLC) cells)	IC50 (SK-Mel-28 melanoma cells)	IC50 [5]
COc1cccc(CCN2CCN(C(=O)/C=C/c3c(C)n(CCCN(C)C)c4ccccc34)CC2)c1 [Compound 2016, (E)-3-(1-(3-(dimethylamino)propyl)-2-methyl-1H-indol-3-yl)-1-(4-(3-methoxyphenethyl)piperazin-1-yl)prop-2-en-1-one]	5 µM	8.9 µM	10.8 µM	5.4 µM	4.8 µM	4.1 µM	5.8 µM
COc1ccc(CCN2CCN(C(=O)/C=C/c3c(C)n(CCCN(C)C)c4ccccc34)CC2)cc1 [Compound 2013, (E)-3-(1-(3-(dimethylamino)propyl)-2-methyl-1H-indol-3-yl)-1-(4-(4-methoxyphenethyl)piperazin-1-yl)prop-2-en-1-one]	3.2 µM	9.1 µM	6.8 µM	10 µM	6.1 µM	3.8 µM	4.8 µM
Cc1c(/C=C/C(=O)N2CCN(CCc3cccc(F)c3)CC2)c2ccccc2n1CCCN(C)C [Compound 2015, (E)-3-(1-(3-(dimethylamino)propyl)-2-methyl-1H-indol-3-yl)-1-(4-(3-fluorophenethyl)piperazin-1-yl)prop-2-en-1-one]	8.8 µM	15.9 µM	21.1 µM	39.2 µM	14.1 µM	3.9 µM	12.4 µM
COc1ccc2c(c1)c(/C=C/C(=O)N1CCN(CCc3ccc(F)cc3)CC1)c(C)n2CCCN(C)C [Compound 2018, (E)-3-(1-(3-(dimethylamino)propyl)-5-methoxy-2-methyl-1H-indol-3-yl)-1-(4-(4-fluorophenethyl)piperazin-1-yl)prop-2-en-1-one]	8.5 µM	38 µM	5.7 µM	12.1 µM	15.9 µM	4.3 µM	8 µM
COc1ccc2c(c1)c(C(=O)N1CCN(CCc3ccc4c(c3)OCO4)CC1)c(C)n2CCCN(C)C [Compound 2046, (4-(2-(benzo[d][1,3]dioxol-5-yl)ethyl)piperazin-1-yl)(1-(3-(dimethylamino)propyl)-5-methoxy-2-methyl-1H-indol-3-yl)methanone]	7.9 µM	8 µM	11.3 µM	13.3 µM	14.4 µM	4.4 µM	20.3 µM
COc1cccc(CCN2CCN(C(=O)c3c(C)n(CCCN4CCN(C)CC4)c4ccc(OC)cc34)CC2)c1 [Compound 2060, (5-methoxy-2-methyl-1-(3-(4-methylpiperazin-1-yl)propyl)-1H-indol-3-yl)(4-(3-methoxyphenethyl)piperazin-1-yl)methanone]	10.8 µM	> 30 µM	6.1 µM	> 30 µM	> 30 µM	7.5 µM	> 30 µM
COc1ccc2c(c1)c(C(=O)N1CCN(CCc3ccccc3)CC1)c(C)n2CCCN(C)C [Compound 2049, (1-(3-(dimethylamino)propyl)-5-methoxy-2-methyl-1H-indol-3-yl)(4-phenethylpiperazin-1-yl)methanone]	8.9 µM	> 30 µM	7.5 µM	> 30 µM	> 30 µM	8.7 µM	8.6 µM
CCN(CC)CCCn1c(C)c(/C=C/C(=O)N2CCN(CCc3ccccc3)CC2)c2cc(OC)ccc21 [Compound 2028, (E)-3-(1-(3-(diethylamino)propyl)-5-methoxy-2-methyl-1H-indol-3-yl)-1-(4-phenethylpiperazin-1-yl)prop-2-en-1-one]	2.7 µM	4.1 µM	5.2 µM	5.3 µM	4.2 µM	2 µM	5.3 µM
COc1cccc(CCN2CCN(C(=O)c3c(C)n(CCCN(C)C)c4ccccc34)CC2)c1 [Compound 2042, (1-(3-(dimethylamino)propyl)-2-methyl-1H-indol-3-yl)(4-(3-methoxyphenethyl)piperazin-1-yl)methanone]	> 30 µM	> 30 µM	> 30 µM	> 30 µM	> 30 µM	> 30 µM	> 30 µM
COc1cccc(CCN2CCN(C(=O)/C=C/c3c(C)n(CCCN4CCN(C)CC4)c4ccc(OC)cc34)CC2)c1 [Compound 2033, (E)-3-(5-methoxy-2-methyl-1-(3-(4-methylpiperazin-1-yl)propyl)-1H-indol-3-yl)-1-(4-(3-methoxyphenethyl)piperazin-1-yl)prop-2-en-1-one]	3.3 µM	4.2 µM	4.5 µM	18.6 µM	10.8 µM	4.2 µM	6.8 µM
COc1ccc2c(c1)c(C(=O)N1CCN(CCc3ccccc3)CC1)c(C)n2CCCN1CCN(C)CC1 [Compound 2061, (5-methoxy-2-methyl-1-(3-(4-methylpiperazin-1-yl)propyl)-1H-indol-3-yl)(4-phenethylpiperazin-1-yl)methanone]	> 30 µM	> 30 µM	> 30 µM	> 30 µM	> 30 µM	8.7 µM	> 30 µM
CCOc1ccc2c(c1)c(C(=O)N1CCN(CCc3ccc(F)cc3)CC1)c(C)n2CCCN1CCN(C)CC1 [Compound 2064, (5-ethoxy-2-methyl-1-(3-(4-methylpiperazin-1-yl)propyl)-1H-indol-3-yl)(4-(4-fluorophenethyl)piperazin-1-yl)methanone]	4.3 µM	29.1 µM	5.8 µM	14 µM	7.8 µM	3.5 µM	6.9 µM
COc1ccc(CCN2CCN(C(=O)c3c(C)n(CCCN(C)C)c4ccc(OC)cc34)CC2)cc1 [Compound 2045, (1-(3-(dimethylamino)propyl)-5-methoxy-2-methyl-1H-indol-3-yl)(4-(4-methoxyphenethyl)piperazin-1-yl)methanone]	> 30 µM	> 30 µM	> 30 µM	> 30 µM	> 30 µM	> 30 µM	> 30 µM
CCN(CC)CCCn1c(C)c(C(=O)N2CCN(CCc3ccc4c(c3)OCO4)CC2)c2cc(OC)ccc21 [Compound 2052, (4-(2-(benzo[d][1,3]dioxol-5-yl)ethyl)piperazin-1-yl)(1-(3-(diethylamino)propyl)-5-methoxy-2-methyl-1H-indol-3-yl)methanone]	10.9 µM	16 µM	12.7 µM	9.2 µM	11.8 µM	5.7 µM	10.9 µM
CCN(CC)CCCn1c(C)c(/C=C/C(=O)N2CCN(CCc3ccc(F)cc3)CC2)c2cc(OC)ccc21 [Compound 2023, (E)-3-(1-(3-(diethylamino)propyl)-5-methoxy-2-methyl-1H-indol-3-yl)-1-(4-(4-fluorophenethyl)piperazin-1-yl)prop-2-en-1-one]	3.6 µM	10.3 µM	4.6 µM	4.4 µM	5.2 µM	2.7 µM	5.6 µM
CCOc1ccc2c(c1)c(C(=O)N1CCN(CCc3ccc(F)cc3)CC1)c(C)n2CCCN(CC)CC [Compound 2063, (1-(3-(diethylamino)propyl)-5-ethoxy-2-methyl-1H-indol-3-yl)(4-(4-fluorophenethyl)piperazin-1-yl)methanone]	5.3 µM	4.1 µM	3 µM	13 µM	10.9 µM	3.5 µM	7.2 µM
CCN(CC)CCCn1c(C)c(C(=O)N2CCN(CCc3cccc(OC)c3)CC2)c2cc(OC)ccc21 [Compound 2054, (1-(3-(diethylamino)propyl)-5-methoxy-2-methyl-1H-indol-3-yl)(4-(3-methoxyphenethyl)piperazin-1-yl)methanone]	10.4 µM	> 30 µM	11.8 µM	> 30 µM	17.8 µM	5.4 µM	6.9 µM
CCN(CC)CCCn1c(C)c(/C=C/C(=O)N2CCN(CCc3ccc4c(c3)OCO4)CC2)c2cc(OC)ccc21 [Compound 2025, (E)-1-(4-(2-(benzo[d][1,3]dioxol-5-yl)ethyl)piperazin-1-yl)-3-(1-(3-(diethylamino)propyl)-5-methoxy-2-methyl-1H-indol-3-yl)prop-2-en-1-one]	4.1 µM	16.5 µM	30 µM	15.6 µM	4.7 µM	4.1 µM	7.6 µM
COc1ccc2c(c1)c(/C=C/C(=O)N1CCN(CCc3ccccc3)CC1)c(C)n2CCCN1CCN(C)CC1 [Compound 2034, (E)-3-(5-methoxy-2-methyl-1-(3-(4-methylpiperazin-1-yl)propyl)-1H-indol-3-yl)-1-(4-phenethylpiperazin-1-yl)prop-2-en-1-one]	10.8 µM	8.1 µM	13.7 µM	17.2 µM	51.3 µM	16.2 µM	11.5 µM
